A short description of this data set: HILIC, Merck SeQuant ZIC-pHILIC, 100 × 2.1 mm, 5 µm, 25 °C; gradient (min/%B) 0/3 1/3 12/30 14.5/90 17/90 18.5/3 24/3. Particulars: stereoisomer not certain.

Each structure is given as a SMILES string. Structures can show the parent of a compound that is named as a salt.

In turn, `COc1ccc2[nH]cc(CC(N)C(=O)O)c2c1` (racemic) [5-Methoxy-DL-tryptophan] displayed an LC retention time of 9.74 min.

The compound `NCCC(N)C(=O)O` (racemic) [DL-2-4-Diaminobutyric acid dihydrochloride] returned an LC retention time of 15.9 min.

In turn, `NC(CCCC(N)C(=O)O)C(=O)O` (racemic) [DL-2-6-Diaminopimelic acid] gave an LC retention time of 14.8 min.

The compound `NC(CC(=O)O)C(=O)O` (racemic) [DL-Aspartic acid] displayed an LC retention time of 13.6 min.

As for `NC(CCS)C(=O)O` (racemic) [DL-Homocysteine], the LC retention time was determined as 11.1 min.

In turn, `OCC1OC(OC2C(CO)OC(O)C(O)C2O)C(O)C(O)C1O` (single isomer, unassigned; peak a) [Lactose Peak A] showed an LC retention time of 13.5 min.

`Nc1ncnc2c1ncn2C1CC(O)C(CO)O1` (centres undefined) [2'-Deoxyadenosine] had an LC retention time of 7.15 min.

On to `O=C(O)c1cc(=O)c2cccc(O)c2[nH]1` [4 8-Dihydroxyquinoline-2-carboxylic acid], for which the LC retention time is 9.54 min.

As for `CN(C)c1ccc(C=CC=O)cc1` [4-(dimethyl amino) cinnamaldehyde], the LC retention time came out at 1.17 min.

`COc1ccc2[nH]cc(CCN)c2c1` [5-methoxytryptamine] registered an LC retention time of 9.56 min.

On to `CC(C)=CCNc1ncnc2nc[nH]c12` [6-(Y-Y-Dimethylallylamino)purine], for which the LC retention time is 2.88 min.

Compound `c1cnc2[nH]ccc2c1` [7-Azaindole] came in with an LC retention time of 1.74 min.

Consider `CC(N)=O` [Acetamide], for which the LC retention time came out at 2.38 min.

Take `Nc1ncnc2nc[nH]c12` [Adenine]: the LC retention time came out at 8.22 min.

`Nc1ncnc2c1ncn2C1OC(CO)C(O)C1O` (centres undefined) [Adenosine]: the LC retention time is 7.78 min.

`CC(N)C(=O)O` (centres undefined) [Alanine] had an LC retention time of 12.1 min.

Regarding `CC(N)(CO)CO` [Amino-2-methylpropane-1 3-diol 2-], the LC retention time was found to be 12.7 min.

Compound `NCc1ccccc1` [Benzylamine] gave an LC retention time of 10.2 min.

`CC(=O)OCC1OC(OC(C)=O)C(OC(C)=O)C(OC(C)=O)C1OC(C)=O` (stereo not drawn) [Beta-Penta acetyl glucose]: the LC retention time was determined as 1.06 min.

In the case of `O=C(O)CC1OCC=C2CN3CCC45C6=CC(=O)C(=O)C([N+](=O)[O-])=C6NC4C1C2CC35` (centres undefined) [Cacotheline], the LC retention time stood at 11.6 min.

`Oc1cc(O)c2c(c1)OC(c1ccc(O)c(O)c1)C(O)C2` (centres undefined) [Catechin] yielded an LC retention time of 8.63 min.

`COc1cc2c(c(OC)c1OC)-c1ccc(OC)c(=O)cc1C(NC(C)=O)CC2` (centres undefined) [Colchicine] gave an LC retention time of 1.36 min.

`CN1CC(=O)NC1=N` [Creatinine] had an LC retention time of 9.87 min.

`NC(CS)C(=O)O` (centres undefined) [Cysteine] registered an LC retention time of 11.8 min.

For `Nc1ccn(C2OC(CO)C(O)C2O)c(=O)n1` (centres undefined) [Cytidine], the LC retention time was 10.5 min.

`Nc1ccnc(=O)[nH]1` [Cytosine] gave an LC retention time of 10.4 min.

The compound `O=C(CO)C(OC1OC(CO)C(O)C(O)C1O)C(O)C(O)CO` (stereo not drawn) [D(+)turanose] showed an LC retention time of 12.6 min.

As to `CC(C)C[C@@H](N)C(=O)O` [D-Leucine], the LC retention time turned out to be 9.5 min.

For `N[C@H](Cc1c[nH]c2ccccc12)C(=O)O` [D-Tryptophan], the LC retention time was determined as 10.1 min.

Regarding `Nc1ccccc1C(=O)CC(N)C(=O)O` [D-kynurenine], the LC retention time was 9.76 min.

Regarding `CC(C)[C@@H](N)C(=O)O` [D-valine], the LC retention time stood at 10.5 min.

`Nc1ccn(C2CC(O)C(CO)O2)c(=O)n1` (centres undefined) [Deoxycytidine] displayed an LC retention time of 10 min.

The compound `Nc1nc2c(ncn2C2CC(O)C(CO)O2)c(=O)[nH]1` (centres undefined) [Deoxyguanosine] returned an LC retention time of 9.48 min.

With `COc1cc(-c2ccc(N)c(OC)c2)ccc1N` [Dianisidine o-], the LC retention time was 1.46 min.

The values above are taken from the RepoRT retention time repository (doi:10.1007/s11306-014-0727-x).
